Where two headings read alike, the source gives them in different places. Positions of bridges follow the written chain, without caps; N, C: chain ends. Residues, ends and D or L forms follow the SMILES beside them.
What was measured:
Assay type in all cases: binding
FGF-R4 ECD = biological target: T1, FGF-R4 ECD (Homo sapiens, UniProt P22455); assay: single concentration BLI of crude peptides; conditions: read-out: KD (4)
T1 construct: DNA constructs for the extracellular domain (ECD) of human FGF-; HPC4 (C); made in house; host or cells: HEK 293-6E
T1 sequence (P22455 22-369 limits assumed): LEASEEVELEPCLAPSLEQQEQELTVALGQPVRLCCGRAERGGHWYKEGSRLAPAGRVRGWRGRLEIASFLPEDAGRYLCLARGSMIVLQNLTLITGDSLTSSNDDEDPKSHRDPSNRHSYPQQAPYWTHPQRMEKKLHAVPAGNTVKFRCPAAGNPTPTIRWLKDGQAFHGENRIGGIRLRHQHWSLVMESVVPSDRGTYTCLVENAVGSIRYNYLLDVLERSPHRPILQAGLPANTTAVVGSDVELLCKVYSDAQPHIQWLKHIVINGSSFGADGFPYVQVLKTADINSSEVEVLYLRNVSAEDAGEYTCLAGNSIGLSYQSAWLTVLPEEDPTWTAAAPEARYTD
Outline: (§1)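 BLI, streptavidin sensors loaded with biotinylated receptor ECD. Single-point: ~1 μM crude peptide, PBS pH7.4/0.05% Tween-20/0.01% BSA; association then dissociation in buffer. KD corrected for UPLC-CAD-determined concentration.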

FGF-R1C ECD = biological target: T2, FGF-R1C ECD (Homo sapiens, UniProt P11362); assay: biochemical; set-up: DNA constructs for the extracellular domain (ECD) of human FGF-; HPC4 (C); made in house; host or cells: HEK 293-6E
T2 sequence (P11362 22-376 limits assumed): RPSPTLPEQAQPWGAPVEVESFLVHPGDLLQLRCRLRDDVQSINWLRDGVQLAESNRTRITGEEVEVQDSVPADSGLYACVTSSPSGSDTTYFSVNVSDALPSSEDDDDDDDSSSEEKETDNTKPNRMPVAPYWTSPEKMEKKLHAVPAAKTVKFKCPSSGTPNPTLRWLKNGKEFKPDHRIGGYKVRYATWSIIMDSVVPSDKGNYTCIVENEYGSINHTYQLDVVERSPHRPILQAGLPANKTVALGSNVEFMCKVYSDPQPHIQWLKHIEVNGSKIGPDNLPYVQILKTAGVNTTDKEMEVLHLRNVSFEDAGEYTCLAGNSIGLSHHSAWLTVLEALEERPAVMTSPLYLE
Outline: as §1

FGF-R3C ECD = biological target: T3, FGF-R3C ECD (Homo sapiens, UniProt P22607); assay: biochemical; set-up: DNA constructs for the extracellular domain (ECD) of human FGF-; HPC4 (C); made in house; host or cells: HEK 293-6E
T3 sequence (P22607 23-375 limits assumed): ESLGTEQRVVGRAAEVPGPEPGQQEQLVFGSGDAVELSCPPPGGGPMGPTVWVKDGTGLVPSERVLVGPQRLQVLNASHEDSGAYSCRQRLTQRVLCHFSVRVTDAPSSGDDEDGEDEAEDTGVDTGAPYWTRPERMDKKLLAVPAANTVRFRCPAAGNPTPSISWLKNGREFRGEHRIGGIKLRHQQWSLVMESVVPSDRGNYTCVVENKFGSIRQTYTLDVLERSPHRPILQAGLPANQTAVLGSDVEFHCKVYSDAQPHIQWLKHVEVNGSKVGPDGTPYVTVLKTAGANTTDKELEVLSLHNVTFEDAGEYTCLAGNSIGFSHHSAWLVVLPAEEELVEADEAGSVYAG
Outline: as §1

[1] = crude T18 selection 1 (1:1:1) peptides, single concentration BLI (Table S4)
[2] = crude NNK peptides, single concentration BLI (Table S3)

## CSCC[C@H](NC(C)=O)C(=O)N[C@H]1CSSC[C@@H](C(=O)NCC(=O)N[C@@H](CO)C(=O)NCC(=O)N[C@@H](CO)C(=O)N[C@@H](CCC(=O)O)C(=O)N[C@@H](CCC(=O)O)C(=O)NCC(=O)N[C@@H](CO)C(=O)NCC(=O)N[C@@H](CO)C(=O)N[C@@H](CC(=O)O)C(=O)N[C@@H](Cc2ccc(O)cc2)C(=O)N[C@@H](CCCCN)C(=O)N[C@@H](CC(=O)O)C(=O)N[C@@H](CC(=O)O)C(=O)N[C@@H](CC(=O)O)C(=O)N[C@@H](CC(=O)O)C(=O)N[C@@H](CCCCN)C(N)=O)NC(=O)[C@H](Cc2c[nH]cn2)NC(=O)[C@H](Cc2ccccc2)NC(=O)[C@H](CC(C)C)NC(=O)[C@H](CCCCN)NC(=O)[C@H](Cc2c[nH]c3ccccc23)NC(=O)[C@H](Cc2ccc(O)cc2)NC(=O)[C@H](Cc2ccc(O)cc2)NC(=O)[C@H](CC(C)C)NC(=O)[C@H](Cc2c[nH]cn2)NC(=O)[C@H](CCCNC(=N)N)NC(=O)CNC(=O)[C@H]([C@@H](C)O)NC1=O (Ac-MCTGRHLYYWKLFHCGSGSEEGSGSDYKDDDDK-NH2; disulfide 2-15)
FGF-R4 ECD; [1]
  Kd: 10 nM
FGF-R1C ECD
  Kd: > 10 µM
FGF-R3C ECD
  Kd: > 10 µM

## CC[C@H](C)[C@@H]1NC(=O)[C@H]([C@@H](C)O)NC(=O)[C@H](C(C)C)NC(=O)[C@H](Cc2ccc(O)cc2)NC(=O)[C@H](Cc2c[nH]c3ccccc23)NC(=O)[C@H](CC(=O)O)NC(=O)[C@@H](NC(=O)[C@H](CCSC)NC(C)=O)CSSC[C@@H](C(=O)NCC(=O)N[C@@H](CO)C(=O)NCC(=O)N[C@@H](CO)C(=O)N[C@@H](CC(=O)O)C(=O)N[C@@H](Cc2ccc(O)cc2)C(=O)N[C@@H](CCCCN)C(=O)N[C@@H](CC(=O)O)C(=O)N[C@@H](CC(=O)O)C(=O)N[C@@H](CC(=O)O)C(=O)N[C@@H](CC(=O)O)C(=O)N[C@@H](CCCCN)C(N)=O)NC(=O)[C@H](CCCCN)NC(=O)[C@H](CCCCN)NC(=O)[C@H](CC(C)C)NC(=O)[C@H](C(C)C)NC(=O)[C@H](CCCCN)NC(=O)[C@H](Cc2ccc(O)cc2)NC1=O (Ac-MCDWYVTIYKVLKKCGSGSDYKDDDDK-NH2; disulfide 2-15)
FGF-R4 ECD; [1]
  Kd: 8 nM
FGF-R1C ECD
  Kd: > 10 µM
FGF-R3C ECD
  Kd: > 10 µM

## CSCC[C@H](NC(C)=O)C(=O)N[C@H]1CSSC[C@@H](C(=O)NCC(=O)N[C@@H](CO)C(=O)NCC(=O)N[C@@H](CO)C(=O)N[C@@H](CC(=O)O)C(=O)N[C@@H](Cc2ccc(O)cc2)C(=O)N[C@@H](CCCCN)C(=O)N[C@@H](CC(=O)O)C(=O)N[C@@H](CC(=O)O)C(=O)N[C@@H](CC(=O)O)C(=O)N[C@@H](CC(=O)O)C(=O)N[C@@H](CCCCN)C(N)=O)NC(=O)[C@H](Cc2ccc(O)cc2)NC(=O)[C@H](Cc2ccccc2)NC(=O)[C@H](Cc2c[nH]c3ccccc23)NC(=O)[C@H](CCCCN)NC(=O)[C@H](Cc2ccc(O)cc2)NC(=O)[C@H](Cc2c[nH]c3ccccc23)NC(=O)[C@H](CCC(N)=O)NC(=O)[C@H](CC(C)C)NC(=O)[C@H]([C@@H](C)O)NC(=O)[C@H](C)NC(=O)[C@H](Cc2ccc(O)cc2)NC(=O)[C@H](CCCCN)NC1=O (Ac-MCKYATLQWYKWFYCGSGSDYKDDDDK-NH2; disulfide 2-15)
FGF-R4 ECD; [1]
  Kd: 63 nM
FGF-R1C ECD
  Kd: 0.114 µM
FGF-R3C ECD
  Kd: 7.34 µM

## CC[C@H](C)[C@@H]1NC(=O)[C@@H](NC(=O)[C@H](CCSC)NC(C)=O)CSSC[C@@H](C(=O)NCC(=O)N[C@@H](CO)C(=O)NCC(=O)N[C@@H](CO)C(=O)N[C@@H](CC(=O)O)C(=O)N[C@@H](Cc2ccc(O)cc2)C(=O)N[C@@H](CCCCN)C(=O)N[C@@H](CC(=O)O)C(=O)N[C@@H](CC(=O)O)C(=O)N[C@@H](CC(=O)O)C(=O)N[C@@H](CC(=O)O)C(=O)N[C@@H](CCCCN)C(N)=O)NC(=O)[C@H](CCCNC(=N)N)NC(=O)CNC(=O)[C@H](CCCNC(=N)N)NC(=O)[C@H](CC(C)C)NC(=O)[C@H](C(C)C)NC(=O)[C@H](CCCCN)NC(=O)[C@H](Cc2ccc(O)cc2)NC(=O)[C@H](CC(C)C)NC(=O)[C@H](CC(C)C)NC1=O (Ac-MCILLYKVLRGRCGSGSDYKDDDDK-NH2; disulfide 2-13)
FGF-R4 ECD; [2]
  Kd: 128 nM
FGF-R1C ECD
  Kd: > 10 µM
FGF-R3C ECD
  Kd: > 10 µM

## CSCC[C@H](NC(C)=O)C(=O)N[C@H]1CSSC[C@@H](C(=O)NCC(=O)N[C@@H](CO)C(=O)NCC(=O)N[C@@H](CO)C(=O)N[C@@H](CC(=O)O)C(=O)N[C@@H](Cc2ccc(O)cc2)C(=O)N[C@@H](CCCCN)C(=O)N[C@@H](CC(=O)O)C(=O)N[C@@H](CC(=O)O)C(=O)N[C@@H](CC(=O)O)C(=O)N[C@@H](CC(=O)O)C(=O)N[C@@H](CCCCN)C(N)=O)NC(=O)[C@H](C)NC(=O)[C@H](CC(C)C)NC(=O)[C@H](CC(C)C)NC(=O)[C@H](C)NC(=O)[C@@H]2CCCN2C(=O)[C@H](Cc2ccccc2)NC(=O)[C@H](Cc2ccccc2)NC(=O)[C@H](CCCNC(=N)N)NC(=O)[C@H](Cc2c[nH]c3ccccc23)NC(=O)[C@H](Cc2ccccc2)NC1=O (Ac-MCFWRFFPALLACGSGSDYKDDDDK-NH2; disulfide 2-13)
FGF-R4 ECD; [2]
  Kd: > 10000 nM
FGF-R1C ECD
  Kd: > 10 µM
FGF-R3C ECD
  Kd: > 10 µM

## CSCC[C@H](NC(C)=O)C(=O)N[C@H]1CSSC[C@@H](C(=O)NCC(=O)N[C@@H](CO)C(=O)NCC(=O)N[C@@H](CO)C(=O)N[C@@H](CC(=O)O)C(=O)N[C@@H](Cc2ccc(O)cc2)C(=O)N[C@@H](CCCCN)C(=O)N[C@@H](CC(=O)O)C(=O)N[C@@H](CC(=O)O)C(=O)N[C@@H](CC(=O)O)C(=O)N[C@@H](CC(=O)O)C(=O)N[C@@H](CCCCN)C(N)=O)NC(=O)[C@H](Cc2c[nH]cn2)NC(=O)[C@H](Cc2c[nH]c3ccccc23)NC(=O)[C@H](Cc2ccc(O)cc2)NC(=O)[C@@H]2CCCN2C(=O)[C@H](CCC(=O)O)NC(=O)[C@H](Cc2ccc(O)cc2)NC(=O)[C@H](CC(C)C)NC(=O)[C@H](Cc2c[nH]cn2)NC(=O)[C@H](CCCNC(=N)N)NC(=O)[C@H](CC(C)C)NC1=O (Ac-MCLRHLYEPYWHCGSGSDYKDDDDK-NH2; disulfide 2-13)
FGF-R4 ECD; [1]
  Kd: > 10000 nM
FGF-R1C ECD
  Kd: > 10 µM
FGF-R3C ECD
  Kd: > 10 µM

## CSCC[C@H](NC(C)=O)C(=O)N[C@H]1CSSC[C@@H](C(=O)NCC(=O)N[C@@H](CO)C(=O)NCC(=O)N[C@@H](CO)C(=O)N[C@@H](CC(=O)O)C(=O)N[C@@H](Cc2ccc(O)cc2)C(=O)N[C@@H](CCCCN)C(=O)N[C@@H](CC(=O)O)C(=O)N[C@@H](CC(=O)O)C(=O)N[C@@H](CC(=O)O)C(=O)N[C@@H](CC(=O)O)C(=O)N[C@@H](CCCCN)C(N)=O)NC(=O)[C@H](Cc2c[nH]cn2)NC(=O)[C@H](CC(C)C)NC(=O)[C@H](Cc2ccc(O)cc2)NC(=O)[C@H](CC(C)C)NC(=O)[C@H](CCC(=O)O)NC(=O)[C@H](CCC(=O)O)NC(=O)[C@H](Cc2ccccc2)NC(=O)[C@H](CC(C)C)NC(=O)[C@H](Cc2ccccc2)NC(=O)[C@H](CCC(=O)O)NC(=O)[C@H](Cc2ccc(O)cc2)NC(=O)[C@H]([C@@H](C)O)NC1=O (Ac-MCTYEFLFEELYLHCGSGSDYKDDDDK-NH2; disulfide 2-15)
FGF-R4 ECD; [1]
  Kd: > 10000 nM
FGF-R1C ECD
  Kd: > 10 µM
FGF-R3C ECD
  Kd: > 10 µM

Source: PMC10763615, “Identification and engineering of potent cyclic peptides with selective or promiscuous binding through biochemical profiling and bioinformatic data analysis” (RSC Chemical Biology, 2023)
